Results from patent US9393244B2, “Increasing parkin activity by administering a deubiquitinating enzyme inhibitor” (Georgetown University, priority 2013, dated 2016).
Peptide text beside a SMILES is read from it. * marks the point of attachment. Cbz = O=C(OCc1ccccc1)*

Experiments:
20S proteasome = biological target: T1, 20S proteasome (Homo sapiens, UniProt P28074); assay: Chymotrypsin-like proteasome activity assay in M17 cells; type: cell-based; details: for effects of USP13 overexpression on proteasome activity: shRNA with USP13 overexpression
T1 construct: endogenous in cells; host or cells: human M17 neuroblastoma cells
Protocol: (§1) To further determine whether USP13 targets parkin, M17 cells were transfected with 3 μg lentiviral plasmids containing parkin, USP13 or different shRNA USP13 clones (FIG. 27A) for 48 hr. The expression level of the shRNAs was determined by routine stereology of the GFP and VS-tagged lentivirus to ensure equal expression of lentiviral plasmids. USP13 gene expression level is verified by PCR. Co-expression of USP13 and parkin led to an increase (134%) in parkin level compared to parkin alone (FIG. 27A, 1st blot, N=4), but shRNA expression reduced USP13 and parkin levels relative to actin (FIG. 27A). […] To ascertain that manipulation of USP13 expression affects protein clearance, the activity of the 20S proteasome activity was measured using chymotrypsin-like assays. Proteasome activity was inhibited after 2 hr treatment with 20 μM proteasome inhibitor MG132 compared to control (LacZ) or parkin alone (FIG. 27B, N=4).

USP10 = assay: Western blot of STEN (soluble) extracts of M17 cells, endogenous USP10 level; type: cell-based, human; details: M17 cells transfected with 3 μg lentiviral plasmids for 48 hr; FIG. 27A 2nd blot
Protocol: as §1

parkin = assay: Western blot of STEN (soluble) extracts of M17 cells, parkin level; type: cell-based, human; details: M17 cells transfected with 3 μg lentiviral plasmids for 48 hr; FIG. 27A 3rd blot
Protocol: as §1

USP13 = assay: Western blot of STEN (soluble) extracts of M17 cells, USP13 level; type: cell-based, human; details: M17 cells transfected with 3 μg lentiviral plasmids for 48 hr; FIG. 27A 1st blot
Protocol: as §1

Compound | effect on USP10 level (USP10) | effects of USP13 overexpression on proteasome activity (20S proteasome) | other results
CC(C)C[C@@H](C=O)NC(=O)[C@H](CC(C)C)NC(=O)[C@H](CC(C)C)NC(=O)OCc1ccccc1 [MG132, reference compound] (Cbz-Leu-Leu-Leu-aldehyde) | – | – | proteasome activity (20S proteasome; 2 hr treatment with 20 μM, compared to control (LacZ) or parkin alone, N=4): inhibited; effect on shRNA-mediated increase/reversal of proteasome activity (20S proteasome; MG132 added to shRNA (F03, F02) conditions): blocked these effects; proteasome activity (20S proteasome; cells co-expressing USP13 with parkin): further inhibited
E07: USP13 shRNA clone, 5′ TTTCCAGTGAAGTACACAG 3′ (SEQ ID NO: 1) | without any effects | – | –
E08: USP13 shRNA clone, 5′ TATTCGTTGCTCGTAGTGC 3′(SEQ ID NO: 5) | did not produce any significant effects | – | effect on parkin level (parkin): did not produce any significant effects; effect on USP13 level (USP13): did not produce any significant effects
F02: USP13 shRNA clone, 5′ TCTTGTAGACCCTGTCGCC 3′ (SEQ ID NO: 4) | without any effects | completely reversed | –
F03: USP13 shRNA clone, 5′ TTTCTCGCAGGTCGCATCT 3′ (SEQ ID NO: 3) | without any effects | completely reversed | increase of proteasome activity (20S proteasome; blocking USP13 with shRNA, compared to control): 14%
F04: USP13 shRNA clone, 5′AACTTAGTCATCTGTGTGT 3′ (SEQ ID NO: 2) | without any effects | – | –
